The values that follow come from US7858786B2, “Pyrimidines and pyrazines useful as modulators of ion channels” (Vertex Pharmaceuticals Incoropated, priority 2005, dated 2010).

T1 sequence (Q9Y5Y9 whole entry, looked up): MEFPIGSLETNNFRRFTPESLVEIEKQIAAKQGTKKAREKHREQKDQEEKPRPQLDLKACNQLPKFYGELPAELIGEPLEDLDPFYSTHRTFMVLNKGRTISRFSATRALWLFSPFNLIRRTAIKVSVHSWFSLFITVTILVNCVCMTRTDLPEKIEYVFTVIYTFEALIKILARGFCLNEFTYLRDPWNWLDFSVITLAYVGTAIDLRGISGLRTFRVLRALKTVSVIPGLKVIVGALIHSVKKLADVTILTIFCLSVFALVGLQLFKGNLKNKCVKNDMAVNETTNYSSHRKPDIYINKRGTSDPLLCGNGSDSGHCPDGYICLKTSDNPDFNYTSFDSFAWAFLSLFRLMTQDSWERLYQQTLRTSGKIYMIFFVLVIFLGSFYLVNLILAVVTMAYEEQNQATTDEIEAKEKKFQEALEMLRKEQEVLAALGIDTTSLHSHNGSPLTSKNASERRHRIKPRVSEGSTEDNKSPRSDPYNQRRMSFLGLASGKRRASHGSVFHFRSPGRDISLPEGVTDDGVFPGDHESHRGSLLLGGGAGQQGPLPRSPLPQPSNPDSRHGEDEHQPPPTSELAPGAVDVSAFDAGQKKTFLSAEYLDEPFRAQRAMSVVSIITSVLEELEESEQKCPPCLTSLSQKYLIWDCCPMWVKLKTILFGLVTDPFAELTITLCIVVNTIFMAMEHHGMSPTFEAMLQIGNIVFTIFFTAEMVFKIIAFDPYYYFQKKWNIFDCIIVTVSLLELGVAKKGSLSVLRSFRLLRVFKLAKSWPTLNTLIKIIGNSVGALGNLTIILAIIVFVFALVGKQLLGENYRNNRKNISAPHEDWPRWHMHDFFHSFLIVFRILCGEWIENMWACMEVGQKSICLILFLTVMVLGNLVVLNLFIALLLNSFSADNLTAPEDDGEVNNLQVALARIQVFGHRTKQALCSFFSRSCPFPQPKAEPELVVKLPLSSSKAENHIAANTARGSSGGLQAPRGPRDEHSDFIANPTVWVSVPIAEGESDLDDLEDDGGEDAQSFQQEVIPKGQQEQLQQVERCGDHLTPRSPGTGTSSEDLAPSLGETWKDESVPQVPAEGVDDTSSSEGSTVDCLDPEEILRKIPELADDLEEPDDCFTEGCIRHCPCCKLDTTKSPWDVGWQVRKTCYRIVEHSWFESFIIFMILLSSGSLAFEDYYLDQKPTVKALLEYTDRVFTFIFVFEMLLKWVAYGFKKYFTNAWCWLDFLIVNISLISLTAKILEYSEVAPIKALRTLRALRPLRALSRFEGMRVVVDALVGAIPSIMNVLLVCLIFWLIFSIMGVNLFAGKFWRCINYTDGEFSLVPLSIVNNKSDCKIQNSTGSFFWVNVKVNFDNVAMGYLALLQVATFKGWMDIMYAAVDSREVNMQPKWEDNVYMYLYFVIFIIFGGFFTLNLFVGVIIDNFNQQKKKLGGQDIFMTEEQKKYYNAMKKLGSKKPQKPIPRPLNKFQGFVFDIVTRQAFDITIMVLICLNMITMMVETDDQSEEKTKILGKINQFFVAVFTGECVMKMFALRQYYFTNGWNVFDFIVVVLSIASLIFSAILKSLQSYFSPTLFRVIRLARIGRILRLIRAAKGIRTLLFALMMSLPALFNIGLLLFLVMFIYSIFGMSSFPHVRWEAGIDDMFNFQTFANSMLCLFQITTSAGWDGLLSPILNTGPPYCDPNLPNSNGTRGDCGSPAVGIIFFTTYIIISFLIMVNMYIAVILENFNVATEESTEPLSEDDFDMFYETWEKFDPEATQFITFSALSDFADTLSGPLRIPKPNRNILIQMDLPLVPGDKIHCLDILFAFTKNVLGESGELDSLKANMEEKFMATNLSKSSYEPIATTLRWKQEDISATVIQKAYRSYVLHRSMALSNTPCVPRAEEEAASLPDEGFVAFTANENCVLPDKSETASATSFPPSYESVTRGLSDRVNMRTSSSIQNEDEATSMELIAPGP

The first assay has as its target T1, NaV1.8 (Homo sapiens, UniProt Q9Y5Y9). Kind of assay: Activity against NaV 1.8 channel (NaV inhibition assay). It counts as cell-based.
Conditions: not given
The method, then:
Compounds of the invention are useful as antagonists of voltage-gated sodium ion channels. Antagonist properties of test compounds were assessed as follows. Cells expressing the NaV of interest were placed into microtiter plates. After an incubation period, the cells were stained with fluorescent dyes sensitive to the transmembrane potential. The test compounds were added to the microtiter plate. The cells were stimulated with either a chemical or electrical means to evoke a NaV dependent membrane potential change from unblocked channels, which was detected and measured with trans-membrane potential-sensitive dyes. Antagonists were detected as a decreased membrane potential response to the stimulus. The optical membrane potential assay utilized voltage-sensitive FRET sensors described by Gonzalez and Tsien (See, Gonzalez, J. E. and R. Y. Tsien (1995) “Voltage sensing by fluorescence resonance energy transfer in single cells” Biophys J 69(4):1272-80, and Gonzalez, J. E. and R. Y. Tsien (1997) “Improved indicators of cell membrane potential that use fluorescence resonance energy transfer” Chem Biol 4(4):269-77) in combination with instrumentation for measuring fluorescence changes such as the Voltage/Ion Probe Reader (VIPRO®) (See, Gonzalez, J. E., K. Oades, et al. (1999) “Cell-based assays and instrumentation for screening ion-channel targets” Drug Discov Today 4(9):431-439).
24 hours before the assay on VIPR, CHO cells endogenously expressing a NaV1.2 type voltage-gated NaV are seeded in 96-well poly-lysine coated plates at 60,000 cells per well. Other subtypes are performed in an analogous mode in a cell line expressing the NaV of interest.
The following is an example of how NaV1.3 inhibition activity is measured using the optical membrane potential method #2. Other subtypes are performed in an analogous mode in a cell line expressing the NaV of interest.
HEK293 cells stably expressing NaV1.3 are plated into 96-well microtiter plates. After an appropriate incubation period, the cells are stained with the voltage sensitive dyes CC2-DMPE/DiSBAC2(3) as follows.
Patch clamp electrophysiology was used to assess the efficacy and selectivity of sodium channel blockers in dorsal root ganglion neurons. Rat neurons were isolated from the dorsal root ganglions and maintained in culture for 2 to 10 days in the presence of NGF (50 ng/ml) (culture media consisted of NeurobasalA supplemented with B27, glutamine and antibiotics). Small diameter neurons (nociceptors, 8-12 μm in diameter) have been visually identified and probed with fine tip glass electrodes connected to an amplifier (Axon Instruments). The “voltage clamp” mode has been used to assess the compound's IC50 holding the cells at −60 mV. In addition, the “current clamp” mode has been employed to test the efficacy of the compounds in blocking action potential generation in response to current injections. The results of these experiments have contributed to the definition of the efficacy profile of the compounds.
TTX-resistant sodium currents were recorded from DRG somata using the whole-cell variation of the patch clamp technique. Recordings were made at room temperature (˜22° C.) with thick walled borosilicate glass electrodes (WPI; resistance 3-4 MΩ) using an Axopatch 200B amplifier (Axon Instruments). After establishing the whole-cell configuration, approximately 15 minutes were allowed for the pipette solution to equilibrate within the cell before beginning recording. Currents were lowpass filtered between 2-5 kHz and digitally sampled at 10 kHz. Series resistance was compensated 60-70% and was monitored continuously throughout the experiment. The liquid junction potential (−7 mV) between the intracellular pipette solution and the external recording solution was not accounted for in the data analysis. Test solutions were applied to the cells with a gravity driven fast perfusion system (SF-77; Warner Instruments). […]
`CC(C)COC(=O)N1CCN(c2ccnc(-c3ccccc3O)n2)CC1` [Compound 34, 4-[2-(2-hydroxyphenyl)pyrimidin-4-yl]piperazine-1-carboxylic acid isobutyl ester]: the IC50 was over 15 µM. Same read-out and setting: under `CC(C)COC(=O)NC1CCN(c2ccnc(-c3ccccc3O)n2)CC1` [Compound 35, [1-[2-(2-hydroxyphenyl)pyrimidin-4-yl]-4-piperidyl]aminoformic acid isobutyl ester] stands 10 to 15 µM; under `CC(C)COC(=O)N[C@H]1CCN(c2cncc(-c3ccccc3C(F)F)n2)C1` [Compound 36, [1-[6-[2-(difluoromethyl)phenyl]pyrazin-2-yl]pyrrolidin-3-yl]aminoformic acid isobutyl ester], under 10 µM.

Take `CC(C)C[C@@H](O)C(=O)N1CCN(c2cncc(-c3ccccc3O)n2)CC1` [Compound 38, 2-hydroxy-1-[4-[6-(2-hydroxyphenyl)pyrazin-2-yl]piperazin-1-yl]-4-methyl-pentan-1-one]: the IC50 is over 15 µM. Still for that read-out and setting: with `CC(C)C[C@@H](O)C(=O)N1CCN(c2nccc(-c3ccccc3O)n2)CC1` [Compound 39, 2-hydroxy-1-[4-[4-(2-hydroxyphenyl)pyrimidin-2-yl]piperazin-1-yl]-4-methyl-pentan-1-one] the figure was under 10 µM. Same read-out and setting: under `CC(C)(C)OC(=O)N[C@@H]1CCN(c2cncc(-c3ccccc3O)n2)C1` [Compound 40, [1-[6-(2-hydroxyphenyl)pyrazin-2-yl]pyrrolidin-3-yl]aminoformic acid tert-butyl ester] stands over 15 µM. On the same count and under the same terms, with `CC(C)OC(=O)N[C@@H]1CCN(c2cncc(-c3ccccc3O)n2)C1` [Compound 41, [1-[6-(2-hydroxyphenyl)pyrazin-2-yl]pyrrolidin-3-yl]aminoformic acid isopropyl ester] the figure was over 15 µM. For `CC(C)C[C@@H](O)C(=O)N1CCN(c2ccnc(-c3ccccc3F)n2)CC1` [Compound 42, 1-[4-[2-(2-fluorophenyl)pyrimidin-4-yl]piperazin-1-yl]-2-hydroxy-4-methyl-pentan-1-one], the IC50 was over 15 µM. On the same count and under the same terms, under `CC(C)(C)OC(=O)N[C@@H]1CCN(c2cncc(-c3ccccc3C(F)F)n2)C1` [Compound 43, [1-[6-[2-(difluoromethyl)phenyl]pyrazin-2-yl]pyrrolidin-3-yl]aminoformic acid tert-butyl ester] stands 10 to 15 µM. On the same count and under the same terms, under `CC(C)C[C@@H](O)C(=O)N1CCN(c2cc(-c3ccccc3F)ncn2)CC1` [Compound 44, 1-[4-[6-(2-fluorophenyl)pyrimidin-4-yl]piperazin-1-yl]-2-hydroxy-4-methyl-pentan-1-one] stands over 15 µM; under `CC(C)COC(=O)NC1CCN(c2cncc(-c3ccccc3F)n2)CC1` [Compound 45, [1-[6-(2-fluorophenyl)pyrazin-2-yl]-4-piperidyl]aminoformic acid isobutyl ester], under 10 µM; under `CC(C)COC(=O)N1CCN(c2cncc(-c3ccccc3F)n2)CC1` [Compound 46, 4-[6-(2-fluorophenyl)pyrazin-2-yl]piperazine-1-carboxylic acid isobutyl ester], over 15 µM.

Take `COCCOC(=O)NC1CCN(c2cncc(-c3ccccc3O)n2)CC1` [Compound 47, [1-[6-(2-hydroxyphenyl)pyrazin-2-yl]-4-piperidyl]aminoformic acid 2-methoxyethyl ester]: the IC50 was over 15 µM. Consider `CC(C)COC(=O)NC1CCN(c2cncc(-c3ccccc3C(F)F)n2)CC1` [Compound 48, [1-[6-[2-(difluoromethyl)phenyl]pyrazin-2-yl]-4-piperidyl]aminoformic acid isobutyl ester], for which the 50% inhibitory concentration (IC50) is under 10 µM. On the same count and under the same terms, with `CC(C)C[C@@H](O)C(=O)N1CCN(c2cc(-c3ccccc3C(F)F)ncn2)CC1` [Compound 49, 1-[4-[6-[2-(difluoromethyl)phenyl]pyrimidin-4-yl]piperazin-1-yl]-2-hydroxy-4-methyl-pentan-1-one] the figure was over 15 µM; with `CC(C)(C)OC(=O)NC1CCN(c2cncc(-c3ccccc3O)n2)CC1` [Compound 52, [1-[6-(2-hydroxyphenyl)pyrazin-2-yl]-4-piperidyl]aminoformic acid tert-butyl ester], under 10 µM.

For the next assay, the system named is neuropathic pain.
Test: not given
To be noted: modest efficacy; cited from earlier work.
Consider `NCC1(CC(=O)O)CCCCC1` [Gabapentin], for which the “patients in which it works” value is recorded as 60%.

In the next assay the target is T1, NaV1.8.
Test: not given
The note with it: read-out: TTX IC50; cited from earlier work.
Regarding `NC1=N[C@H](O)[C@H]2[C@H]3O[C@]4(O)O[C@@H]([C@@H](O)[C@@]2(N1)[C@@H]4O)[C@]3(O)CO` [TTX, tetrodotoxin], the IC50 was over 50 µM.
